Results: patent US5242912A, “Cyclic anthranilic acid derivatives and process of preparing the same” (Kyorin Pharmaceutical Co., Ltd., priority 1989, dated 1993)

Experiments:
vascular permeability = assay: Inhibition of increased vascular permeability (acetic acid i.p., Evans blue dye leakage); assay type: in vivo, Male ddy mice; details: 100 mg/kg p.o., N = 9
Protocol: Inhibition of increased vascular permeability
Male ddy mice (6 weeks of age) were used in this experiment. Example 9 compound suspended in 5% gum arabic solution was administered p.o., 45 minutes before the i.v. injection of 1.0% Evans blue solution (0.1 ml/10 g B.W.). Immediately after the i.v. injection, 1.0% acetic acid solution was administered i.p. (0.1 ml/10 g B.W.). The mice were killed 30 minutes after the acetic acid injection. Peritoneal exudate was collected by washing out the peritoneal cavity with physiological saline and centrifuged at 3,000 r.p.m. After the centrifugation, spectrophotometry of the supernatant was measured at 630 nm. Results were expressed as dye leakage and percent inhibition.

Bovine serum albumin = Bovine serum albumin (Bos taurus, UniProt P02769); assay: biochemical
Protocol: Inhibitory action against thermal denaturation of protein
Bovine serum albumin was dissolved into 1/15M phosphoric acid buffer solution, which was then adjusted to 0.7%. After adding the solution of the present invention compound thereto, it was heated at 65° C. for 7-8 minutes. After cooled, the absorbance at 660 nm was measured, compared with the absorbance of the reference to derive the inhibitory rate and then the concentration necessary to inhibit 50% was obtained.

bone resorption = assay: Inhibitory action against bone resorption (45Ca release from embryo front arm bone, IL-1β); assay type: cell-based; details: Rattus norvegicus; 25 μg/ml, with interleukin-1β, 72 hours; read-out: Inhibitory rate against bone resorption (%)
Protocol: Inhibitory action against bone resorption
According to Raisz et al method (J. Clin. Invest., 155, 103 (1965)), bone piece of front arm of […] labelled with radioactive calcium (^45 Ca) was prepared in order to measure bone resorption. That is, the radioactive calcium (^45 CaCl2; 200 μCi) was injected under the skin to the back of rats in the 17th day of pregnancy and two days later they were killed with exsanguination by cutting of the carotid artery thereof. After the embryos were picked up and washed with sterilized phosphated buffer solution, the bone of front arm was taken out, which was then rendered free of the attached muscle and cartilage of the both ends, and said piece of bone was cultivated in the culture medium of BGJb.
Next, according to the method of Tsuda et al (J. Bone Miner. Metab., 1, 207 (1986)), the effect of the present invention compound against the bone resorption was determined, which are described as follows.
The piece of bone was put on a milipore-filter, and was pre-cultivated, in a well with 24 holes plate accomodating 0.6 ml culture medium of BGJb, at 37° C. and under 5% carbon dioxide. After the precultivation for 24 hours, said bone with the filter were transferred into a test culture medium added with interleukin-1β (1L-1β) or with both 1L-1β and drugs and the cultivation was continued. After 72 hours cultivation in said test culture medium, 0.3 ml of the supernatant was taken out and ^45 Ca released from the piece of bone was determined. After the piece of bone was immersed in 0.3 ml of 1N hydrochloric acid for more than 1.5 hours, 10 ml of ACSII was added thereto and the radioactivity was determined. Furthermore, the activity of bone resorption was represented by the ratio (percentage) of ^45 Ca released in the supernatant of cultivation to the total radioactivity which had been contained in the piece of bone (the sum of radioactivities in the piece of bone and the supernatant of cultivation). […]

Sequence of Bovine serum albumin (P02769 25-607): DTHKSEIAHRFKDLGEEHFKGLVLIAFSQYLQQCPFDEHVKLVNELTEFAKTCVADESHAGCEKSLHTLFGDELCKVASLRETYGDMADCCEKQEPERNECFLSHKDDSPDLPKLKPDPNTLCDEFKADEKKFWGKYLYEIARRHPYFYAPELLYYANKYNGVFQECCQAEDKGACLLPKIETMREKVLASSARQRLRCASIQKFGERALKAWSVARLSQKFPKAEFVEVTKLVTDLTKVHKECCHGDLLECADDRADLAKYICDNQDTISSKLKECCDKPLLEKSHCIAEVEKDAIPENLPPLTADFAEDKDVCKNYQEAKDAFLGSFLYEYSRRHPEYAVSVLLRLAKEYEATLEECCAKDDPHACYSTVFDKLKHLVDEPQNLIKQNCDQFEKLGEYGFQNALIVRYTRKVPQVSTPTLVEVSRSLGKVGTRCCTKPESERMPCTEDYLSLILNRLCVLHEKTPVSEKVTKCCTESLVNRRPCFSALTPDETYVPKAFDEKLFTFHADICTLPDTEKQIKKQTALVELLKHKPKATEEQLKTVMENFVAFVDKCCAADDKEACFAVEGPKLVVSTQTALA

Structure (SMILES): O=C(O)c1cc(Br)cc2c1NCCCC2 [Example 9, 7-Bromo2,3,4,5-tetrahydro-1H-1-benzazepine-9-carboxylic acid]
- Dye leakage (mean ± S.E) (vascular permeability; 45 minutes before Evans blue, control 25.77 ± 1.81, *significantly different from control, p < 0.01): 17.43 ± 1.38 µg/mL
- Inhibition (%) (vascular permeability): 32.3%
- IC50 (Bovine serum albumin): 132 µM

Structure (SMILES): O=C(O)c1cc([N+](=O)[O-])cc2c1NCCCC2 [Example 10, 7-Nitro-2,3,4,5-tetrahydro-1H-1-benzazepine-9-carboxylic acid]
- IC50 (Bovine serum albumin): 71 µM

Structure (SMILES): N#Cc1cc2c(c(C(=O)O)c1)NCCCC2 [Example 11 c), 7-Cyano-2,3,4,5-tetrahydro-1H-1-benzazepine-9-carboxylic acid]
- inhibition at 25 µg/mL (bone resorption): 54%

Structure (SMILES): O=C(O)c1cc2c(c(C(=O)O)c1)NCCCC2 [Example 12, 2,3,4,5-Tetrahydro-1H-1-benzazepine-7,9-di-carboxylic acid]
- inhibition at 25 µg/mL (bone resorption): 84%

Structure (SMILES): CC(C)Oc1ccc2c(=O)c(-c3ccccc3)coc2c1 [Ipriflavone, 7-isopropoxy isoflavone, reference compound]
- inhibition at 25 µg/mL (bone resorption): 58%
